Like-named read-outs stand apart in the source and are kept apart here.
Columns and labels:
HRV-B14 = experiment: microbe, parasite or virus in culture; format: cell-based, human rhinovirus; conditions: Human rhinovirus sp.
CV-A24 = experiment: microbe, parasite or virus in culture; format: cell-based, coxsackievirus A24; conditions: Enterovirus C
EV-A71 = experiment: microbe, parasite or virus in culture; format: cell-based, enterovirus A71; conditions: Enterovirus A
in vitro [1] = conditions: monkey
CV-B3 [2] = experiment: microbe, parasite or virus in culture; format: cell-based, coxsackievirus B3; conditions: Enterovirus B, CVB3, BGM
[3] = test system: representative EVs and RVs; format: cell-based
PV-1 = experiment: microbe, parasite or virus in culture; format: cell-based, poliovirus 1; conditions: Enterovirus C
CV-B3 [4] = experiment: microbe, parasite or virus in culture; format: cell-based, coxsackievirus B3; conditions: Enterovirus B
EV-D68 = experiment: microbe, parasite or virus in culture; format: cell-based, enterovirus D68; conditions: Enterovirus D
in vitro [5] = conditions: human
CV-B3 [6] = experiment: microbe, parasite or virus in culture; format: cell-based, coxsackievirus B3; conditions: for EC50: Enterovirus B
in vitro [7] = conditions: human; remark: listed apart in the source
HRV-A2 = experiment: microbe, parasite or virus in culture; format: cell-based, human rhinovirus; conditions: Human rhinovirus sp., HRVA2, HeLa R19, read-out: EC50 HRV-A2
[8] = HRVB14, HeLa R19, read-out: EC50 HRV-B14
[9] = CVA24, HeLa R19, read-out: EC50 Exp1
[10] = CVA24, HeLa R19, read-out: EC50 Exp2
[11] = EVA71, HeLa R19, read-out: EC50 EV-A71
[12] = EVA71, HeLa R19, read-out: EC50 Exp1
[13] = EVA71, HeLa R19, read-out: EC50 Exp2
[14] = CVB3, HAP1, read-out: EC50 Hap1 Average
[15] = CVB3, HAP1, read-out: Exp 1 EC50 Hap1
[16] = CVB3, HAP1, read-out: Exp 2 EC50 Hap1
[17] = EVD68, HeLa R19, read-out: EC50 EV-D68
[18] = EVD68, HeLa R19, read-out: EC50 Exp1
[19] = EVD68, HeLa R19, read-out: EC50 Exp2
[20] = CVB3, HeLa R19, read-out: CV-B3 EC50 Average
[21] = CVB3, HeLa R19, read-out: CV-B3 Exp 1 EC50
[22] = CVB3, HeLa R19, read-out: CV-B3 Exp2 EC50
[23] = CVB3, HeLa R19, read-out: Exp 1 EC50 HelaR19
[24] = CVB3, HeLa R19, read-out: Exp 2 EC50 HelaR19

O=C(c1ccco1)N(Cc1ccccc1)c1ccccc1 [Compound 19a, N-Benzyl-N-phenylfuran-2-carboxamide]
EC50 (HRV-B14; [8]): > 30000 nM
EC50 (CV-A24; CVA24, HeLa R19, read-out: EC50 CV-A24): 21480 ± 30 nM
EC50 (CV-A24; [9]): 21500 nM
EC50 (CV-A24; [10]): 21400 nM
EC50 (EV-A71; [11]): 3500 ± 310 nM
EC50 (EV-A71; [12]): 3190 nM
EC50 (EV-A71; [13]): 3800 nM
cytotoxicity (in words) (HeLa R19 cells): did not show any cytotoxicity
CC50 (in vitro [1]; CC50): > 100000 nM
CC50 (in vitro [1]; CC50 BGM Average): > 100000 nM
CC50 (in vitro [1]; Exp 1 CC50 BGM): > 100000 nM
CC50 (in vitro [1]; Exp 2 CC50 BGM): > 100000 nM
EC50 (CV-B3 [2]; read-out: EC50 BGM Average): 1840 nM
EC50 (CV-B3 [2]; read-out: Exp 1 EC50 BGM): 1900 nM
EC50 (CV-B3 [2]; read-out: Exp 2 EC50 BGM): 1770 nM
spectrum of antiviral activity (in words) [3]: anti-EV activity but not anti-RV activity
EC50 (PV-1; HeLa R19, read-out: EC50 Exp1): 31500 nM
EC50 (PV-1; HeLa R19, read-out: EC50 Exp2): 33600 nM
EC50 (PV-1; HeLa R19, read-out: EC50 PV-1): 32600 ± 1080 nM
EC50 (CV-B3 [4]; [14]): 730 nM
EC50 (CV-B3 [4]; [15]): 480 nM
EC50 (CV-B3 [4]; [16]): 970 nM
EC50 (EV-D68; [17]): 1340 ± 450 nM
EC50 (EV-D68; [18]): 1790 nM
EC50 (EV-D68; [19]): 890 nM
CC50 (in vitro [5]; CC50 Average): > 30000 nM
CC50 (in vitro [5]; CC50 HelaR19 Average): > 100000 nM
CC50 (in vitro [5]; Exp 1 CC50): > 30000 nM
CC50 (in vitro [5]; Exp 1 CC50 HelaR19): > 100000 nM
CC50 (in vitro [5]; Exp2 CC50): > 30000 nM
CC50 (in vitro [5]; Exp 2 CC50 HelaR19): > 100000 nM
increase or decrease of antiviral activity against CV-B3 (CV-B3 [6]): less than 3 fold
EC50 (CV-B3 [6]; [20]): 910 nM
EC50 (CV-B3 [6]; [21]): 880 nM
EC50 (CV-B3 [6]; [22]): 940 nM
EC50 (CV-B3 [6]; CVB3, HeLa R19, read-out: EC50 HelaR19 Average): 1620 nM
EC50 (CV-B3 [6]; [23]): 1250 nM
EC50 (CV-B3 [6]; [24]): 1980 nM
CC50 (in vitro [7]; CC50): > 100000 nM
CC50 (in vitro [7]; CC50 Hap1 Average): > 100000 nM
CC50 (in vitro [7]; Exp 1 CC50 Hap1): > 100000 nM
CC50 (in vitro [7]; Exp 2 CC50 Hap1): > 100000 nM
EC50 (HRV-A2): > 30000 nM

Cc1ccc(CN(C(=O)c2ccco2)c2ccccc2)cc1 [Compound 19g, N-(4-Methylbenzyl)-N-phenylfuran-2-carboxamide]
EC50 (HRV-B14; HRVB14, HeLa R19, read-out: EC50 Average): 12600 nM
EC50 (HRV-B14; HRVB14, HeLa R19, read-out: EC50 Exp1): 13600 nM
EC50 (HRV-B14; HRVB14, HeLa R19, read-out: EC50 Exp2): 11500 nM
EC50 (HRV-B14; [8]): 12500 ± 1050 nM
EC50 (CV-A24; [9]): 9290 nM
EC50 (CV-A24; [10]): 11000 nM
EC50 (EV-A71; [11]): 600 ± 140 nM
EC50 (EV-A71; [12]): 460 nM
EC50 (EV-A71; [13]): 730 nM
cytotoxicity (in words) (HeLa R19 cells): did not show any cytotoxicity
CC50 (in vitro [1]; CC50): > 100000 nM
CC50 (in vitro [1]; CC50 BGM Average): > 100000 nM
CC50 (in vitro [1]; Exp 1 CC50 BGM): > 100000 nM
CC50 (in vitro [1]; Exp 2 CC50 BGM): > 100000 nM
EC50 (CV-B3 [2]): 1700 ± 260 nM
EC50 (CV-B3 [2]; read-out: EC50 BGM Average): 1690 nM
EC50 (CV-B3 [2]; read-out: Exp 1 EC50 BGM): 1950 nM
EC50 (CV-B3 [2]; read-out: Exp 2 EC50 BGM): 1440 nM
spectrum of antiviral activity (in words) [3]: anti-EV activity but not anti-RV activity
EC50 (PV-1; HeLa R19, read-out: EC50 Exp1): 16500 nM
EC50 (PV-1; HeLa R19, read-out: EC50 Exp2): 18500 nM
EC50 (PV-1; HeLa R19, read-out: EC50 PV-1): 17500 ± 1000 nM
EC50 (CV-B3 [4]; [14]): 2380 nM
EC50 (CV-B3 [4]; [15]): 2080 nM
EC50 (CV-B3 [4]; [16]): 2680 nM
EC50 (EV-D68; EVD68, HeLa R19, read-out: EC50 Average): 1480 nM
EC50 (EV-D68; [17]): 1490 ± 80 nM
EC50 (EV-D68; [18]): 1560 nM
EC50 (EV-D68; [19]): 1410 nM
CC50 (in vitro [5]; CC50 Average): > 30000 nM
CC50 (in vitro [5]; CC50 HelaR19 Average): > 100000 nM
CC50 (in vitro [5]; Exp 1 CC50): > 30000 nM
CC50 (in vitro [5]; Exp 1 CC50 HelaR19): > 100000 nM
CC50 (in vitro [5]; Exp2 CC50): > 30000 nM
CC50 (in vitro [5]; Exp 2 CC50 HelaR19): > 100000 nM
effect of the substitution on antiviral activity against CV-B3 (in words) (CV-B3 [6]): only marginally affected antiviral activity
EC50 (CV-B3 [6]; [20]): 880 nM
EC50 (CV-B3 [6]; [21]): 860 nM
EC50 (CV-B3 [6]; [22]): 890 nM
EC50 (CV-B3 [6]; [23]): 1020 nM
EC50 (CV-B3 [6]; [24]): 1690 nM
CC50 (in vitro [7]; CC50): > 100000 nM
CC50 (in vitro [7]; CC50 Hap1 Average): > 100000 nM
CC50 (in vitro [7]; Exp 1 CC50 Hap1): > 100000 nM
CC50 (in vitro [7]; Exp 2 CC50 Hap1): > 100000 nM
EC50 (HRV-A2): > 30000 nM
